According to patent US9090668B2, “Process for synthesizing cyclic peptide compound” (THE UNIVERSITY OF TOKYO, priority 2007, dated 2015):
*1 amine or outer side, *2 acyl side, *3 side chain or, on linkers, in order; H or OH if unused. Where a SMILES comes first, the peptide text is derived from it. Bridges are numbered along the chain shown (N, C = ends). [ ]: non-standard residue; d: D form. The star is where a group is joined. hMet = CSCCC[C@H](N)C(=O)O; Orn = NCCC[C@H](N)C(=O)O; Dab = NCC[C@H](N)C(=O)O; X1 = O=C(C[*:2])[*:1]; For = O=C*

Key:
Urotensin II receptor = target: T1, Urotensin II receptor (Homo sapiens, UniProt Q9UKP6); assay: Calcium mobilization measurement in HEK-UTR cells (Fluo-4-AM fluorescence); type: cell-based; settings: HEK-UTR cells (HEK cells expressing an Urotensin II receptor)
T1 construct: expressed in transfected cells; host or cells: HEK cells (HEK-UTR)
T1 sequence (Q9UKP6 1-389): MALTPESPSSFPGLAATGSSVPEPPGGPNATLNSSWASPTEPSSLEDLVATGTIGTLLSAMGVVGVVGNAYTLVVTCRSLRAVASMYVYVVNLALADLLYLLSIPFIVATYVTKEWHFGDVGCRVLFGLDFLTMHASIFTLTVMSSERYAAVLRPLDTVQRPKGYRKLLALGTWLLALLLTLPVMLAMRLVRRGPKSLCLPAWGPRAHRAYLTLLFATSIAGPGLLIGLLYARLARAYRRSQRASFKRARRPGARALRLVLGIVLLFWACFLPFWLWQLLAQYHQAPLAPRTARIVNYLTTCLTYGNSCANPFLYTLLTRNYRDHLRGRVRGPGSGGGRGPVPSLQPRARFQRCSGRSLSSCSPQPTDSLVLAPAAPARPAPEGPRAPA
Method: FIG. 10 illustrates calcium mobilization in cells by addition of peptides using a fluorescent reagent. 2×10^5 HEK-UTR cells (HEK cells expressing an Urotensin II receptor) were seeded into a 96 well plate. After 12-16 hours, the cells were incubated in 1 μM Fluo-4-AM (Dojindo Laboratories) for 1 hour. After the incubation was completed, the fluorescent reagent was removed, and 90 μL of an assay buffer (Hanks Balanced Salts Solution (HBSS), 10 mM HEPES, 200 μM of CaCl2, 0.1% BSA, and 2.5 mM probenecid) was added. Then, 10 μL of peptides dissolved in an assay buffer was added, and changes in an intensity of fluorescent light were measured by a microplate reader. The peptides were prepared by purifying the translation product by Zip-tip (Millipore) and distilling off the elute under reduced pressure.

proteinase K = proteinase K (Parengyodontium album, UniProt P06873); assay: Protease resistance of peptides against proteinase K, analysed by MALDI-MS; type: in vitro ADME; settings: 5 μg/ml proteinase K, 37° C., 1 hour
Chain of proteinase K (P06873 106-384, species assumed): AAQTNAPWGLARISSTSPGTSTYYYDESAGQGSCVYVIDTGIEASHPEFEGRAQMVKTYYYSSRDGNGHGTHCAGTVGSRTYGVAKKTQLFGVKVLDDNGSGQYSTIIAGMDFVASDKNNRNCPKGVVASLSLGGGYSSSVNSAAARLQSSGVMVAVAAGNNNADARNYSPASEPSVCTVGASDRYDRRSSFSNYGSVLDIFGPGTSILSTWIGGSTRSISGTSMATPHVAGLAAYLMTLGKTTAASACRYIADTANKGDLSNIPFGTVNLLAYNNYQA
Method: Translationally synthesized peptides and purchased Urotensin II peptides were reacted in 5 μg/ml of a proteinase K solution at 37° C. for 1 hour in the presence of, or in the absence of, 1 mM DTT.

Row | SMILES | calcium mobilization in cells (change in fluorescence intensity) (Urotensin II receptor) | degradation by proteinase K (proteinase K) | degradation by proteinase K after change into linear form by DTT (proteinase K; in the presence of 1 mM DTT)
1 | CSCCC[C@H](NC=O)C(=O)N1CCC[C@H]1C(=O)N[C@@H](CC(=O)O)C(=O)N[C@H]1CCNC(=O)CSC[C@@H](C(=O)N[C@H](C(=O)O)C(C)C)NC(=O)[C@H](Cc2ccc(O)cc2)NC(=O)[C@H](CCCN)NC(=O)[C@H](Cc2c[nH]c3ccccc23)NC(=O)[C@H](Cc2ccccc2)NC1=O [YS9] (For-[hMet]PD[Dab]FW[Orn]YCV-OH; linker 4-9 via X1) | calcium mobilization in the cells was observed | not degraded | –
2 | CC(C)[C@H](NC(=O)[C@@H]1CSSC[C@H](NC(=O)[C@H](CC(=O)O)NC(=O)[C@@H]2CCCN2C(=O)[C@@H](NC(=O)[C@@H](N)CCC(=O)O)[C@@H](C)O)C(=O)N[C@@H](Cc2ccccc2)C(=O)N[C@@H](Cc2c[nH]c3ccccc23)C(=O)N[C@@H](CCCCN)C(=O)N[C@@H](Cc2ccc(O)cc2)C(=O)N1)C(=O)O [Urotensin II] | – | not degraded | decomposed
3 | CSCC[C@H](NC=O)C(=O)N1CCC[C@H]1C(=O)N[C@@H](CC(=O)O)C(=O)N[C@@H](CC(C)C)C(=O)N[C@@H](Cc1ccccc1)C(=O)N[C@@H](Cc1c[nH]c2ccccc12)C(=O)N[C@@H](CCCCN)C(=O)N[C@@H](Cc1ccc(O)cc1)C(=O)N[C@@H](CS)C(=O)N[C@H](C(=O)O)C(C)C [YS10] (For-MPDLFWKYCV-OH; N-terminus and C-terminus assumed) | – | degraded | –
